What was measured:
[1] = test system: human DMD exon 50 GFP based reporter; assay: BioMol high throughput screen in Ex50-GFP reporter C2C12 myoblasts, with or without AON6; assay type: cell-based, mouse
exon skipping = assay: Counter screens, 16 point titrations and mdx mouse myotubes (validation of lead hits); assay type: cell-based
Excerpt: The cell line, which was adapted to allow the screening of thousands of compounds in multiple replicates, was obtained from Dr. Qi Lu. […]

mdx mice [2] = assay: Intramuscular PMOE23 with systemic dantrolene in mdx mice, dystrophin in tibialis anterior; assay type: in vivo, mouse
Method: One dose of either 10 ug or 2 ug of morpholino M23D in 25 ul PBS was injected into the tibialis anterior (TA) of 6 week old mdx mice on day 1 (n=3 per group). Dantrolene was administered by intraperitoneal injection at either 10 or 20 mg/kg/day for 9 days in a volume of 200 ul every 12 hours. Dantrolene was solubilized in 20% DMSO in normal saline. TA muscle was harvested on Day 11 and immediately frozen in Optimal Cutting Temperature compound (O.C.T.) embedding medium. Serial sections along the TA with intervals 800 microns apart were processed to perform assessments within the TA region with maximal AO delivery. […] (A) For Western blot analysis, half of each of the 4 middle intervals were pooled. Dystrophin protein was detected using MANDYS8 (exons 31 and 32) antibody. Control C57 was loaded at 5 ug/well, and 50 ug/well was loaded for other mdx samples. (B) Western blot was quantified by densitometry and plotted as arbitrary densitometry units normalized to vinculin loading control. […] (D) Data from whole muscle cross sections from C were quantified as total fluorescence, without inclusion of edges with artifactual staining, normalized to surface area scanned. […] Images were analyzed using Ariol SL-50 (Applied Imaging Corp., San Jose, Calif.). […]
Total fluorescence was quantitated from TA sections by scanning four entire cross sections from each of the mice for each experimental group.

mdx mice [3] = assay: Systemic (intravenous) PMOE23 with intraperitoneal dantrolene in mdx mice, exon 23 skipping and dystrophin in multiple muscles; assay type: in vivo, mouse
Method: A systemic dose of 100 mg/kg or sub-optimal 10 mg/kg of morpholino M23D (+07-18) was administered by tail vein injection on Day 1. From Day 2-7 Dantrolene was administered intraperitoneally at a dose of 10 mg/kg/day in two divided doses. On Day 8 multiple muscles were harvested for analysis. (A) DMD exon 23 skipping was assessed as in FIG. 3. Skip/full-length mRNA ratio data were combined for all mice and for all initial muscle groups tested (quadricep, gastrocnemius, tibialis anterior and diaphragm). (B) Dystrophin protein was assessed by Western blot (Mandys8) quantitative densitometry for all muscle groups and individual mice (quadricep, gastrocnemius, tibialis anterior and diaphragm). (C) Quantitative immunohistochemistry is plotted as arbitrary units normalized to surface area for each section for all muscle groups and mice using one whole muscle cross section per animal per muscle. […] (E) Immunostaining of serial sections of treated mdx quadricep detects sarcolemmal localization of dystrophin (MANDYS8), alpha-sarcoglycan (NCL-a-sarc) and beta-dystroglycan (NCL-b-DG). […] Error bars in A-C represent the standard deviation among mice and muscles in each group (n=3 animals or n=12 total observations in saline+dantrolene and 100 mg/kg AO+DMSO; n=4 animals or n=16 observations in 10 mg/kg AO with Dantrolene or DMSO).
This enabled us to assess whether dantrolene in combination with systemic morpholino PMOE23 could enhance Dmd exon 23 skipping and induce dystrophin protein expression in multiple skeletal muscles. A single intravenous dose of 100 mg/kg PMOE23 was used as a positive control. A single intravenous dose of 10 mg/kg AO was used as a sub-optimal dose alone or in combination with twice daily dosing of 10 mg/kg/day of dantrolene intraperitoneally for the subsequent 6 days [7, 27] (n=3 in control groups and n=4 in experimental groups; Table 5).
Multiple skeletal muscles were harvested for analysis on day 7 including the quadriceps, gastrocnemius, tibialis anterior, diaphragm, triceps and heart. Muscles were assessed for: 1) increased amounts of skipped Dmd exon 23 mRNA species 2) Dystrophin protein rescue by Western blot 3) Dystrophin protein expression by quantitative immunostain, 4) appropriate subcellular localization, and 5) restoration of other components of the dystroglycan complex to the sarcolemmal membrane. To determine if dantrolene enhanced Dmd exon 23 skipping, the quantitative taqman assay was performed on RNA from each skeletal muscle.
RNA was isolated from snap frozen skeletal muscle using the QIAGEN RNAeasy Fibrous Tissue Kit.

mdx mice [4] = conditions: mouse, in vivo; cited from earlier work
[5] = 10 mg/kg PMOE23 IV with dantrolene 10 mg/kg/day IP

O=C1CN(/N=C/c2ccc(-c3ccc([N+](=O)[O-])cc3)o2)C(=O)N1 [DANTROLENE]
Average Fluorescence (n = 3) [1]: 18.20
Fluorescence Plate 1 [1]: 16.32
Fluorescence Plate 2 [1]: 11.76
Fluorescence Plate 3 [1]: 26.51
activity in the −AO screen [1]: indistinguishable from the DMSO controls
exon skipping activity in the screen +AO [1]: enhanced exon skipping activity
efficacy in counter screen and on mdx mouse myotubes (exon skipping): showing efficacy in counter screen and on mdx mouse myotubes
induced levels of dystrophin (Western blot) (mdx mice [2]; dantrolene 10 or 20 mg/kg/day IP with 2 ug PMOE23 IM): about 20 % of C57 dystrophin levels
dystrophin protein rescue with and without PMOE23 (mdx mice [2]; dantrolene IP, immunofluorescence and Western blot): only rescued protein expression in the presence of PMOE23
Dmd exon 23 mRNA skipping, aggregate analysis of all skeletal muscle groups (excluding heart) (mdx mice [3]; [5]): significantly increased
Dmd exon 23 skipping in the gastrocnemius, TA, diaphragm and quadriceps (mdx mice [3]; [5]): enhanced skipping
Dmd exon 23 skipping in the triceps (mdx mice [3]; [5]): Enhancement was not apparent
Dmd exon 23 skipping in heart muscle (mdx mice [3]; any experimental condition): No appreciable skipping
mean fold increase in dystrophin protein expression, PMOE23 with dantrolene relative to PMOE23 with vehicle (mdx mice [3]; pooled Western blot densitometry across quadricep, gastrocnemius, TA and diaphragm): 3.1 fold
CK values (mdx mice [4]): lower CK values

Reference: patent US10188633B2, “Identification of small molecules that facilitate therapeutic exon skipping” (The Regents of the University of California, priority 2011, dated 2019)
